Reference: ChEMBL document CHEMBL1671654, “In vivo activity of the pyrrolopyrazolyl-substituted oxazolidinone RWJ-416457” (Antimicrob Agents Chemother, 2009)
The source made the active and inactive calls. The calls are words filed in the database; no cut-off is given here.

Experiments:
[1] = Ratio of fAUC (24 hrs) for community-associated methicillin-resistant Staphylococcus aureus OC8525 infected po dosed mouse to MIC for community-associated methicillin-resistant Staphylococcus aureus OC8525; type: functional
Staphylococcus aureus [2] = experiment: Antibacterial activity against methicillin-susceptible Staphylococcus aureus ATCC 13709 infected in sc dosed Swiss Webster mouse administered at 1 to 3 hrs post infection measured after 3 days; type: functional; conditions: ATCC 13709, sc
Mus musculus [3] = experiment: fAUC (0 to 24 hrs) in CF-1 mouse at 2 mg/kg, iv; type: ADME, organism-based; design: dose 2 mg/kg, route intravenous; conditions: in vivo
[4] = Ratio of fAUC (24 hrs) for Methicillin-susceptible Staphylococcus aureus ATCC 13709 infected po dosed mouse to MIC for Methicillin-susceptible Staphylococcus aureus ATCC 1370; type: functional
[5] = Half life in CF-1 mouse at 2 mg/kg, iv; type: ADME, organism-based; design: dose 2 mg/kg, route intravenous; conditions: in vivo
Staphylococcus aureus [6] = experiment: Antibacterial activity against community-associated methicillin-resistant Staphylococcus aureus OC8525 infected in iv dosed Swiss Webster mouse administered at 1 to 3 hrs post infection measured after 3 days; type: functional
[7] = Apparent oral clearance in CF-1 mouse at 10 mg/kg, po; type: ADME, organism-based; design: dose 10 mg/kg, route oral; conditions: in vivo
Mus musculus [8] = experiment: fCmax in CF-1 mouse at 10 mg/kg, po; type: ADME, organism-based; design: dose 10 mg/kg, route oral; conditions: in vivo
[9] = AUC (0 to 24 hrs) in CF-1 mouse at 10 mg/kg, sc; type: ADME, organism-based; design: time < 24 hr, dose 10 mg/kg, route subcutaneous; conditions: plasma
Staphylococcus aureus [10] = experiment: Antibacterial activity against community-associated methicillin-resistant Staphylococcus aureus OC8525 infected in po dosed Swiss Webster mouse administered at 1 to 3 hrs post infection measured after 3 days; type: functional
[11] = Apparent oral clearance in CF-1 mouse at 10 mg/kg, sc; type: ADME, organism-based; design: dose 10 mg/kg, route oral; conditions: in vivo
[12] = Tmax in CF-1 mouse serum at 10 mg/kg, po; type: ADME, organism-based; design: dose 10 mg/kg, route oral
Streptococcus pneumoniae [13] = experiment: Antibacterial activity against penicillin-susceptible Streptococcus pneumoniae ATCC 6301 infected in iv dosed Swiss Webster mouse administered at 1 to 3 hrs post infection measured after 3 days; type: functional; conditions: ATCC 6301, iv
[14] = Half life in CF-1 mouse at 10 mg/kg, sc; type: ADME, organism-based; design: dose 10 mg/kg, route subcutaneous; conditions: in vivo
[15] = Ratio of fAUC (24 hrs) for penicillin-susceptible Streptococcus pneumoniae ATCC 6301 infected po dosed mouse to MIC for penicillin-susceptible Streptococcus pneumoniae ATCC 6301; type: functional
Streptococcus pneumoniae [16] = experiment: Antibacterial activity against penicillin-susceptible Streptococcus pneumoniae ATCC 6301 infected in sc dosed Swiss Webster mouse administered at 1 to 3 hrs post infection measured after 3 days; type: functional; conditions: ATCC 6301, sc
Mus musculus [17] = experiment: fAUC (0 to 24 hrs) in CF-1 mouse at 10 mg/kg, sc; type: ADME, organism-based; design: dose 10 mg/kg, route subcutaneous; conditions: in vivo
[18] = Clearance in CF-1 mouse at 2 mg/kg, iv; type: ADME, organism-based; design: dose 2 mg/kg, route intravenous; conditions: in vivo
[19] = Ratio of fAUC (24 hrs) for penicillin-susceptible Streptococcus pneumoniae ATCC 6301 infected iv dosed mouse to MIC for penicillin-susceptible Streptococcus pneumoniae ATCC 6301; type: functional
Mus musculus [20] = experiment: fAUC (0 to 24 hrs) in CF-1 mouse at 10 mg/kg, po; type: ADME, organism-based; design: dose 10 mg/kg, route oral; conditions: in vivo
Staphylococcus aureus [21] = experiment: Antibacterial activity against community-associated methicillin-resistant Staphylococcus aureus OC8525 infected in sc dosed Swiss Webster mouse administered at 1 to 3 hrs post infection measured after 3 days; type: functional
[22] = Ratio of fAUC (24 hrs) for Methicillin-susceptible Staphylococcus aureus ATCC 13709 infected sc dosed mouse to MIC for Methicillin-susceptible Staphylococcus aureus ATCC 1370; type: functional
[23] = Ratio of fAUC (24 hrs) for community-associated methicillin-resistant Staphylococcus aureus OC8525 infected iv dosed mouse to MIC for community-associated methicillin-resistant Staphylococcus aureus OC8525; type: functional
Staphylococcus aureus [24] = experiment: Bacteriostatic activity against methicillin-susceptible Staphylococcus aureus Smith ATCC 13709 infected in SKH1 mouse upto 320 mg/kg/day, po administered post infection measured after 48 hrs; type: functional, organism-based
Mus musculus [25] = experiment: fCmax in CF-1 mouse at 10 mg/kg, sc; type: ADME, organism-based; design: dose 10 mg/kg, route subcutaneous; conditions: in vivo
Staphylococcus aureus [26] = experiment: Antibacterial activity against methicillin-susceptible Staphylococcus aureus ATCC 13709 infected in iv dosed Swiss Webster mouse administered at 1 to 3 hrs post infection measured after 3 days; type: functional; conditions: ATCC 13709, iv
[27] = Tmax in CF-1 mouse serum at 10 mg/kg, sc; type: ADME, organism-based; design: dose 10 mg/kg, route subcutaneous
[28] = Ratio of fAUC (24 hrs) for Methicillin-susceptible Staphylococcus aureus ATCC 13709 infected iv dosed mouse to MIC for Methicillin-susceptible Staphylococcus aureus ATCC 1370; type: functional
[29] = Cmax in CF-1 mouse at 10 mg/kg, po; type: ADME, organism-based; design: dose 10 mg/kg, route oral; conditions: in vivo
[30] = Ratio of fAUC (24 hrs) for community-associated methicillin-resistant Staphylococcus aureus OC8525 infected sc dosed mouse to MIC for community-associated methicillin-resistant Staphylococcus aureus OC8525; type: functional
[31] = Ratio of fAUC (24 hrs) for penicillin-susceptible Streptococcus pneumoniae ATCC 6301 infected sc dosed mouse to MIC for penicillin-susceptible Streptococcus pneumoniae ATCC 6301; type: functional
[32] = Half life in CF-1 mouse at 10 mg/kg, po; type: ADME, organism-based; design: dose 10 mg/kg, route oral; conditions: in vivo
Staphylococcus aureus [33] = experiment: Antibacterial activity against methicillin-susceptible Staphylococcus aureus ATCC 13709 infected in po dosed Swiss Webster mouse administered at 1 to 3 hrs post infection measured after 3 days; type: functional; conditions: ATCC 13709, po
[34] = AUC (0 to 24 hrs) in CF-1 mouse at 10 mg/kg, po; type: ADME, organism-based; design: time < 24 hr, dose 10 mg/kg, route oral; conditions: plasma
Streptococcus pneumoniae [35] = experiment: Antibacterial activity against penicillin-susceptible Streptococcus pneumoniae ATCC 6301 infected in po dosed Swiss Webster mouse administered at 1 to 3 hrs post infection measured after 3 days; type: functional; conditions: ATCC 6301, po
[36] = Cmax in CF-1 mouse at 10 mg/kg, sc; type: ADME, organism-based; design: dose 10 mg/kg, route subcutaneous; conditions: in vivo
[37] = Cmax in CF-1 mouse at 2 mg/kg, iv; type: ADME, organism-based; design: dose 2 mg/kg, route intravenous; conditions: in vivo
Mus musculus [38] = experiment: fCmax in CF-1 mouse at 2 mg/kg, iv; type: ADME, organism-based; design: dose 2 mg/kg, route intravenous; conditions: in vivo
[39] = AUC (0 to 24 hrs) in CF-1 mouse at 2 mg/kg, iv; type: ADME, organism-based; design: time < 24 hr, dose 2 mg/kg, route intravenous; conditions: plasma
Streptococcus pneumoniae [40] = experiment: Antibacterial activity against penicillin-susceptible Streptococcus pneumoniae ATCC 6301 infected in po dosed CF-1 mouse administered at 24 hrs post infection measured after 48 hrs relative to Linezolid; type: functional; conditions: Streptococcus pneumoniae, ATCC 6301, po

Compound `CC(=O)NC[C@H]1CN(c2ccc(N3CCOCC3)c(F)c2)C(=O)O1` [LINEZOLID] has a fAUC/MIC [1] of 3.3, an ED50 (Staphylococcus aureus [2]) of 7 mg/kg/day and a fAUC (Mus musculus [3]) of 1.4 µg·h/mL. For the same compound, the fAUC/MIC [4] was 6.6, the half-life [5] was 30 min and the ED50 (Staphylococcus aureus [6]) was 8.5 mg/kg/day. It also gave a CL/F [7] of 8.67 mL/min/kg, a fCmax (Mus musculus [8]) of 6 µg/mL and an AUC(0-t) at 24 h [9] of 16000 ng·h/mL. For the same compound, the ED50 (Staphylococcus aureus [10]) was 5.1 mg/kg/day, the CL/F [11] was 10.7 mL/min/kg and the Tmax [12] was ≤ 7.8 min. The ED50 (Streptococcus pneumoniae [13]) was > 40 mg/kg/day, the half-life [14] was 48 min and the fAUC/MIC [15] was 6.6. The ED50 (Streptococcus pneumoniae [16]) was 20 mg/kg/day, the fAUC (Mus musculus [17]) was 11 µg·h/mL and the clearance [18] was 15.7 mL/min/kg. For the same compound, the fAUC/MIC [19] was 3.6, the fAUC (Mus musculus [20]) was 13 µg·h/mL and the ED50 (Staphylococcus aureus [21]) was 3.7 mg/kg/day. The fAUC/MIC [22] was 5.3, the fAUC/MIC [23] was 1.8 and the Activity (Staphylococcus aureus [24]) was “Active”. The fCmax (Mus musculus [25]) was 7.1 µg/mL, the ED50 (Staphylococcus aureus [26]) was 6.3 mg/kg/day and the Tmax [27] was ≤ 7.8 min. The fAUC/MIC [28] was 3.6, the Cmax [29] was 8900 ng/mL and the fAUC/MIC [30] was 2.6. It also gave a fAUC/MIC [31] of 5.3, a half-life [32] of 84 min and an ED50 (Staphylococcus aureus [33]) of 6.4 mg/kg/day. For the same compound, the AUC(0-t) at 24 h [34] was 19000 ng·h/mL, the ED50 (Streptococcus pneumoniae [35]) was 14 mg/kg/day and the Cmax [36] was 11000 ng/mL. For the same compound, the Cmax [37] was 3300 ng/mL, the fCmax (Mus musculus [38]) was 2.3 µg/mL and the AUC(0-t) at 24 h [39] was 2100 ng·h/mL. The ED50 (Streptococcus pneumoniae [40]) was ≥ 14 mg/kg/day.
